According to ChEMBL document CHEMBL4145513, “An overview on crystal structures of InhA protein: Apo-form, in complex with its natural ligands and inhibitors” (Eur J Med Chem, 2018):

Experiments:
[1] = biological target: T1, Enoyl-[acyl-carrier-protein] reductase [NADH] (Mycobacterium tuberculosis, UniProt P9WGR1, V203A)
[2] = biological target: T1, Enoyl-[acyl-carrier-protein] reductase [NADH]; remark: listed apart in the source
[3] = biological target: Enoyl-[acyl-carrier-protein] reductase [NADH] (Mycobacterium tuberculosis, UniProt P9WGR1, I215A); assay: biochemical
[4] = biological target: Enoyl-[acyl-carrier-protein] reductase [NADH] (Mycobacterium tuberculosis, UniProt P9WGR1, I21V); assay: Inhibition of Mycobacterium tuberculosis InhA I21V mutant using trans-2-decenoyl-CoA as substrate by spectrophotometric analysis
[5] = biological target: T2, Enoyl-[acyl-carrier-protein] reductase [NADH] (Mycobacterium tuberculosis, UniProt P9WGR1, S94A); assay: Inhibition of Mycobacterium tuberculosis InhA S94A mutant using trans-2-decenoyl-CoA as substrate by spectrophotometric analysis
[6] = biological target: Enoyl-[acyl-carrier-protein] reductase [NADH] (Mycobacterium tuberculosis, UniProt P9WGR1, T2A); assay: Inhibition of Mycobacterium tuberculosis InhA T2A mutant
[7] = test system: Mycobacterium tuberculosis; assay: Antimycobacterial activity against Mycobacterium tuberculosis harboring InhA T2A mutant; assay type: functional
[8] = biological target: Enoyl-[acyl-carrier-protein] reductase [NADH] (Mycobacterium tuberculosis, UniProt P9WGR1, D2A); assay: Inhibition of Mycobacterium tuberculosis InhA D2A mutant
[9] = biological target: T2, Enoyl-[acyl-carrier-protein] reductase [NADH]; assay: Inhibition of Mycobacterium tuberculosis InhA S94A mutant

CCCCCCc1ccc(Oc2ccccc2C)c(O)c1
Ki [1]: 427 nM | Ki [2]: 913 nM | Ki [3]: 114 nM

NC(=O)c1c[n+]([C@@H]2O[C@H](COP(=O)(O)OP(=O)(O)OC[C@H]3O[C@@H](n4cnc5c(N)ncnc54)[C@H](O)[C@@H]3O)[C@@H](O)[C@H]2O)ccc1C(=O)c1ccncc1
Ki [4]: 2.1 nM | Ki [5]: 5.3 nM | IC50 [6]: 19 nM | Ki [6]: 5 nM | MIC50 [7]: 1.8 µM | IC50 [8]: 323 nM | Ki [8]: 172 nM | IC50 [9]: 323 nM | Ki [9]: 172 nM
